We go through five compounds from patent US20110236397A1, “LIMITED PROTEOLYSIS OF CD2AP AND PROGRESSION OF RENAL DISEASE” (University of Miami, priority 2008, published 2011).

Residues, ends and D or L forms follow the SMILES beside them. *: point of attachment. Cbz = O=C(OCc1ccccc1)*; CH2F = FC*

Experiment [1] relates to rat glomerulonephritis model. Particulars: cited from earlier work.
The test system of experiment [2] is podocytes. Particulars: in vivo; cited from earlier work.
For experiment [3], the system named is cathepsin L. The experiment is described as follows: Cellular CatL cleavage assay: CD2AP-FLAG HEK293 cells co-transfected with cathepsin L constructs. It is filed as cell-based. To be noted: for cleavage of CD2AP into p32 by WT cathepsin L: WT cathepsin L (pre-pro and short form), co-incubation with inhibitor; for cleavage of CD2AP into p32 by cytosolic (short, CatL M1) cathepsin L: cytosolic cathepsin L alone, inhibitor added. The text has this: FIG. 2A is a scan of a photograph showing a silver stained gel of FLAG-CD2AP after cleavage with CatL at various pH. FIG. 2B is a scan of a photograph showing an immunoblot of cleaved CD2AP fragments that are tagged with a N-terminal GFP. GFP-CD2AP is stable in the absence of CatL enzyme. Cleavage of CD2AP at pH 4.5 and 5.5 leads to complete digestion of the protein. At pH 7.0, CD2AP is cleaved into a stable 55 kD fragment (▪) as detected with an anti-GFP antibody. The same fragment is detected with the CD2AP antiserum which is raised against the SH3 domains of CD2AP (anti-N-CD2AP). The CD2AP antiserum also detects a weak band corresponding to a 44 kD fragment (▴, detected by the affinity of the antibody to the C-terminal SH3, anti-C-CD2AP). FIG. 2C is a schematic representation showing the match of cleavage fragments with predicted CatL cleavage site QPLGS. FIG. 2D is a blot showing that CatL cleaves CD2AP-FLAG yielding a 44 kD (▴) and a 32 kD ([…]) fragment. FIG. 2E is a schematic representation showing that both fragments have corresponding predictions in the amino acid sequence of CD2AP (QPLGS and LSAAE). FIG. 2F is a blot showing results from a cellular CatL cleavage assay: Wild type (WT) CatL (pre-pro CatL and short form) cleaves CD2AP in HEK293 cells. […] Short CatL (CatL M1) is sufficient to cleave CD2AP yielding a 32 kD fragment ([…]). This cleavage is abrogated by a specific CatL inhibitor. FIG. 2G is a blot showing that deletion of the CatL cleavage site LSAAE protects CD2AP from limited proteolysis into the 32 kD fragment ([…]).
Cell culture and transient transfection. Mouse podocytes were cultured as described previously (Mundel, P. et al. Exp. Cell Res. 236, 248-258 (1997)). HEK293 cells were maintained and transfected as previously reported (Reiser, J. et al. Nat. Genet. 37, 739-744 (2005)).
Next, it was investigated whether cytosolic cathepsin L in cells is sufficient to process CD2AP. CD2AP-FLAG expressing HEK293 cells were co-transfected with WT cathepsin L […] which generates cytosolic and lysosomal cathepsin L protein and a cathepsin L construct that contains a deletion of the first AUG site and thus encodes selectively for the cytosolic form of cathepsin L. The experiments were performed in the presence or absence of a specific cathepsin L inhibitor (FIG. 2F). WT cathepsin L led to cleavage of CD2AP yielding p32. […] More importantly, transfection of cytosolic cathepsin L alone was sufficient to cleave CD2AP resulting in the production of p32 (FIG. 2F). […] The stable p32 fragment was identified in the cleavage assays at neutral pH (FIG. 2A). In addition, this fragment was generated in HEK 293 cells using cytosolic cathepsin L. Therefore, this fragment was regarded as an end-product generated through cytosolic cathepsin L cleavage. […]

In experiment [4] the target is cathepsin B (Homo sapiens, UniProt P07858). Particulars: cited from earlier work.
Experiment [5] has as its system cathepsin L. Kind of experiment: Cathepsin L activity assay in glomerular extracts (fluorogenic substrate CV-(FR)2). It is filed as biochemical, mouse. Particulars: LPS treated mice, co-incubation. On the procedure:
Isolation and processing of glomeruli. Glomeruli were isolated from kidneys of 8-12 weeks old LPS- and PBS-treated (control) mice using a sequential sieve technique with mesh sizes of 180, 100, and 71 μm. The fraction collected from the 71-μm sieve was maintained for soup/pellet fractionation. Isolated glomeruli were homogenized in buffer containing 20 mM HEPES pH 7.5, 100 mM NaCl, 1 mM MgCl2, 1 mM PMSF, protease inhibitors (Roche), calpain inhibitor (Calbiochem), and E-64d (Calbiochem) using Dounce homogenizer. Subsequently, cytosol was centrifuged for 10 min at 4,600 g. Proteins were solubilized by 1% Triton X-100, 1 hour at 4° C., before it was spun at 70,000 g for 1 hour.
Cathepsin L activity assay. Subcellular sites of cathepsin L and cathepsin B activity in glomerular extracts were visualized by a fluorogenic substrate, CV—(FR)2, which emits light upon cleavage by cathepsin L or cathepsin B (Biomol).
To test the significance of this prediction, glomeruli were isolated from control mice and animals that were injected with low-dose lipopolysaccharide (LPS), a treatment causing high levels of cytosolic cathepsin L in podocytes. The tissue samples were further processed to obtain cytosolic and membrane-bound glomerular extracts (FIG. 1A). […]

Where [6] appears, read: listed as specific CatL inhibitor.

Turning to `CC(C)C[C@H](NC(=O)[C@H]1O[C@@H]1C(=O)O)C(=O)NCCCCN=C(N)N` [E64], in experiment [1], the experimental proteinuria entry is “can reduce experimental proteinuria”. For the same compound, the protection against proteinuria entry in experiment [2] is reported as “safeguard against proteinuria”.

As for `COC(=O)[C@@H]1CC2=CC(=O)CC[C@]2(C)[C@@]23O[C@@H]2C[C@@]2(C)[C@@H](CC[C@@]24CCC(=O)O4)[C@H]13` [Epleronone], the protection against proteinuria entry in experiment [2] was “safeguard against proteinuria”.

For the compound `CCN(CC)CCCC(C)Nc1nc(C)cc(Nc2ccc3nc(C)cc(N)c3c2)n1` (centres unmarked) [NSC23766], in experiment [2], the protection against proteinuria result was “safeguard against proteinuria”.

Take `O=C(NC(Cc1ccccc1)C(=O)NC(Cc1ccccc1)C(=O)CF)OCc1ccccc1` (stereo not drawn) [Z-FF-FMK] (Cbz-Phe-Phe-CH2F; configuration not given here): the results for the “cleavage of CD2AP into p32 by WT cathepsin L” value in experiment [3] (setting [6]) and in experiment [3] (listed as specific cathepsin L inhibitor) were “can be prevented” and “could be prevented”, respectively. Also, the “cleavage of CD2AP into p32 by cytosolic (short, CatL M1) cathepsin L” value in experiment [3] (listed as cathepsin L inhibitor) is “could be blocked”; in experiment [3] (setting [6]), “abrogated”. For the same compound, the “inhibition of cathepsin B” value in experiment [4] is listed as “does not inhibit cathepsin B”. Moreover, in experiment [5], the “inhibition of cathepsin L activity in cytosolic extract of glomeruli” value is “could be inhibited”.

With `CC(C)[C@@H]1NC(=O)[C@@H](Cc2ccccc2)NC(=O)[C@H](CC(=O)O)NC(=O)CNC(=O)[C@H](CCCN=C(N)N)NC1=O` [cycloRGDfV], the protection against proteinuria entry in experiment [2] is reported as “safeguard against proteinuria”.
